IC50 data for 21 molecules are collected here from patent US8445676B2, “Pyrrolotriazine kinase inhibitors” (Bristol-Myers Squibb Company, priority 2008, dated 2013).

The target in one assay is T1, JAK3 (Homo sapiens, UniProt P52333).
T1 sequence (P52333 1-1124): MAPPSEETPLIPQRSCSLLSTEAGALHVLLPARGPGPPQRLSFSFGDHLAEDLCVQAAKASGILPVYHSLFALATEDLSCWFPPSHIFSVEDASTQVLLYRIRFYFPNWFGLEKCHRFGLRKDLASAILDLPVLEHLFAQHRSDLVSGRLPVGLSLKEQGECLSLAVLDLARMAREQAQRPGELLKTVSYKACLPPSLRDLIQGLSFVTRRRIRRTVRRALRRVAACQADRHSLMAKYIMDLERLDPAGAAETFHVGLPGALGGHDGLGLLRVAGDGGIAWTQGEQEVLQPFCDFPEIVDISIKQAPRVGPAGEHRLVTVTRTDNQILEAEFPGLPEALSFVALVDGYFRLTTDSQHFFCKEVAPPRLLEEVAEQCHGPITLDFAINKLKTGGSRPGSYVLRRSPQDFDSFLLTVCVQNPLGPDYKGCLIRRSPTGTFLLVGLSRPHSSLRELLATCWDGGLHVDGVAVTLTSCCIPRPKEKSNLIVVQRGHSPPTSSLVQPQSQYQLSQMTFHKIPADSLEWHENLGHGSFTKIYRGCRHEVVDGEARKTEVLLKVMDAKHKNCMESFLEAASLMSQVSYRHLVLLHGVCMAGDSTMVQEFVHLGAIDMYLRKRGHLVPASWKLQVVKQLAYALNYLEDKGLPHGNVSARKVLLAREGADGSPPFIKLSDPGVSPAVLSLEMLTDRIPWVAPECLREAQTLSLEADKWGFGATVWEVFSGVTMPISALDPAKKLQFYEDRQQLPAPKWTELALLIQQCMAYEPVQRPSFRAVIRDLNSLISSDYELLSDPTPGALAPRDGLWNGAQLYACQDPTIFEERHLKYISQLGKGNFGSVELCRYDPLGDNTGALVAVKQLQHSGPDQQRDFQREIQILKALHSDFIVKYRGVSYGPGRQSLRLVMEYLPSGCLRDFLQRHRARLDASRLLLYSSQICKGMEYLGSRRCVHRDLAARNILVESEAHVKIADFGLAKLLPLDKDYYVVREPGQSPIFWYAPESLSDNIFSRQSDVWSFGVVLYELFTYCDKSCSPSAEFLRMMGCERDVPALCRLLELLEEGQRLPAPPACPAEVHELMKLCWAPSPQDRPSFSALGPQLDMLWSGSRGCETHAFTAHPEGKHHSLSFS
Description: JAK3 Tyrosine Kinase Assay. Conditions: ATP 8 μM; JAK3 2.5 nM; 60 min room temperature. Type of assay: biochemical. As for the experimental part:
JAK3 Tyrosine Kinase Assay
The assays were performed in V-bottom 384-well plates. […] The reaction was initiated by the combination of JAK3 with substrates and test compounds. The reaction was incubated at room temperature for 60 min. and terminated by adding 45 μl of 35 mM EDTA to each sample. The reaction mixture was analyzed on the Caliper LabChip 3000 by electrophoretic separation of the fluorescent substrate and phosphorylated product. […] The final concentration of reagents in the assays is ATP, 8 μM; JAK3 fluorescent peptide, 1.5 μM; JAK3, 2.5 nM; and DMSO, 1.6%. […] Compounds were dissolved at 10 mM in dimethylsulfoxide (DMSO) and evaluated at eleven concentrations, each in duplicate. IC50 values were derived by non-linear regression analysis.

A further assay addresses JAK2 (Homo sapiens, UniProt O60674). The assay is described as follows: JAK2 Tyrosine Kinase Assay. It counts as biochemical. Conditions: ATP 30 μM; JAK2 1 nM; 60 min room temperature; read-out: Jak2(IC50). In a few lines:
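Reaction of JAK2 with fluorescent substrate run 60 min at room temperature and stopped with EDTA. Substrate and phosphorylated product separated electrophoretically on a Caliper LabChip. Compounds tested at eleven concentrations in duplicate, with IC50 from non-linear regression.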

Chain of JAK2 (O60674 whole entry): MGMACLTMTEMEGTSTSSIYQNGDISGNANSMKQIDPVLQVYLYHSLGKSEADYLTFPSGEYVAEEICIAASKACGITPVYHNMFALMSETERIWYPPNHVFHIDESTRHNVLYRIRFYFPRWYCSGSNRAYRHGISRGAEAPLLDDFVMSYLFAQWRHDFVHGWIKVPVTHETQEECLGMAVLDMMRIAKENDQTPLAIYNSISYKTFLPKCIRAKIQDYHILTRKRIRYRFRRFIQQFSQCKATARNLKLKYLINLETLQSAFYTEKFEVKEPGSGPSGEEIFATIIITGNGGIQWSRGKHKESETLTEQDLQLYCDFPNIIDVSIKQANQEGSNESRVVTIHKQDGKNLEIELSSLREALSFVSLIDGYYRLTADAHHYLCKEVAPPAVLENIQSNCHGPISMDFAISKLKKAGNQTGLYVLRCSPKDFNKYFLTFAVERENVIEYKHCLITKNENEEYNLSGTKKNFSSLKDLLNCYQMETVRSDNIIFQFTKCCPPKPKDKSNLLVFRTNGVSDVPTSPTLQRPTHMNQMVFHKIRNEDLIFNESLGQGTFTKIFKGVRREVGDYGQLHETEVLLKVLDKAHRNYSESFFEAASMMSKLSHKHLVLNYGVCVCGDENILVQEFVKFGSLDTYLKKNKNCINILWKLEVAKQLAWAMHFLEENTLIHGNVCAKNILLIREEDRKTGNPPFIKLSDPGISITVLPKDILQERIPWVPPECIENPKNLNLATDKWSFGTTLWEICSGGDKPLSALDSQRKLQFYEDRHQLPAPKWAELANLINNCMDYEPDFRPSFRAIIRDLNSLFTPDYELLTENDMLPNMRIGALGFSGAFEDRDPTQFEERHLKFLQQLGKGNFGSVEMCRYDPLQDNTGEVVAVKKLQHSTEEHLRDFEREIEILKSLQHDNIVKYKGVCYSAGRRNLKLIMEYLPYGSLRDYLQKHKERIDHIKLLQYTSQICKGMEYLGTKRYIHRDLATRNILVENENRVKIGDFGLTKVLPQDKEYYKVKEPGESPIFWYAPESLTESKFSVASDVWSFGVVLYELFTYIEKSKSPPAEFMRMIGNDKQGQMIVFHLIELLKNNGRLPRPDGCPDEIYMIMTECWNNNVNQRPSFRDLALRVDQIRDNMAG

Consider `Cc1cc(Nc2nc(N3CCN(C(=O)Cc4c(Cl)cccc4Cl)CC3)nn3cccc23)n[nH]1` [Example 38, 2-(4-((2,6-dichlorophenyl)acetyl)-1-piperazinyl)-N-(5-methyl-1H-pyrazol-3-yl)pyrrolo[2,1-f][1,2,4]triazin-4-amine], for which the 50% inhibitory concentration (IC50) turned out to be 30 nM on JAK3 and 1.12 nM at JAK2.

Turning to `Cc1cc(Nc2nc(N3CCN(C(=O)[C@@](C)(O)c4ccccc4)CC3)nn3cccc23)n[nH]1` [Example 211, (2S)-1-(4-(4-((5-methyl-1H-pyrazol-3-yl)amino)pyrrolo[2,1-f][1,2,4]triazin-2-yl)-1-piperazinyl)-1-oxo-2-phenyl-2-propanol], the values for the half-maximal inhibitory concentration (IC50) on JAK3 and on JAK2 were 9480 nM and 590 nM, respectively.

In the case of `Cc1cc(Nc2nc(N3CCN(C(=O)c4c(F)cccc4F)CC3)nn3cccc23)n[nH]1` [Example 20, 2-(4-(2,6-difluorobenzoyl)-1-piperazinyl)-N-(5-methyl-1H-pyrazol-3-yl)pyrrolo[2,1-f] [1,2,4]triazin-4-amine], the IC50 at JAK3 was found to be 50 nM; on JAK2, 8.14 nM.

Consider `Cc1cc(Nc2nc(N3CCN(C(=O)Cc4ccc(C(F)(F)F)cc4)CC3)nn3cccc23)n[nH]1` [Example 43, N-(5-methyl-1H-pyrazol-3-yl)-2-(4-((4-(trifluoromethyl)phenyl)acetyl)-1-piperazinyl)pyrrolo[2,1-f][1,2,4]triazin-4-amine], for which the IC50 is 50000 nM on JAK3 and 2660 nM on JAK2.

`Cc1cc(Nc2nc(N3CCN(C(=O)Cc4ccc(OC(F)(F)F)cc4)CC3)nn3cccc23)n[nH]1` [Example 91, N-(5-methyl-1H-pyrazol-3-yl)-2-(4-((4-(trifluoromethoxy)phenyl)acetyl)-1-piperazinyl)pyrrolo[2,1-f][1,2,4]triazin-4-amine]: the results for the IC50 at JAK3 and at JAK2 were 20 nM and 0.697 nM, respectively.

Consider `Cc1cnc(C(=O)N2CCN(c3nc(Nc4cc(C)[nH]n4)c4cccn4n3)CC2)cn1` [Example 32, 2-(4-((5-methyl-2-pyrazinyl)carbonyl)-1-piperazinyl)-N-(5-methyl-1H-pyrazol-3-yl)pyrrolo[2,1-f] [1,2,4]triazin-4-amine], for which the concentration for half-maximal inhibition (IC50) at JAK3 came to 120 nM; at JAK2, 7.16 nM.

As to `Cc1cc(Nc2nc(N3CCN(C(=O)c4cccc(C#N)c4)CC3)nn3cccc23)n[nH]1` [Example 66, 3-((4-(4-((5-methyl-1H-pyrazol-3-yl)amino)pyrrolo[2,1-f][1,2,4]triazin-2-yl)-1-piperazinyl)carbonyl)benzonitrile], the 50% inhibitory concentration (IC50) is 10 nM on JAK3 and 0.898 nM at JAK2.

On to `COc1ccc(CC(=O)N2CCN(c3nc(Nc4cc(C)[nH]n4)c4cccn4n3)CC2)cc1` [Example 45, 2-(4-((4-methoxyphenyl)acetyl)-1-piperazinyl)-N-(5-methyl-1H-pyrazol-3-yl)pyrrolo[2,1-f][1,2,4]triazin-4-amine], for which the IC50 on JAK3 was 10 nM; on JAK2, 0.891 nM.

In the case of `COc1cc(F)c(CC(=O)N2CCN(c3nc(Nc4cc(C)[nH]n4)c4cccn4n3)CC2)c(F)c1` [Example 139, 2-(4-((2,6-difluoro-4-methoxyphenyl)acetyl)-1-piperazinyl)-N-(5-methyl-1H-pyrazol-3-yl)pyrrolo[2,1-f][1,2,4]triazin-4-amine], on JAK3, the IC50 amounted to 70 nM.

Consider `Cc1cc(Nc2nc(N3CCN(C(=O)c4ccns4)CC3)nn3cccc23)n[nH]1` [Example 106, 2-(4-(5-isothiazolylcarbonyl)-1-piperazinyl)-N-(5-methyl-1H-pyrazol-3-yl)pyrrolo[2,1-f] [1,2,4]triazin-4-amine], for which the figures for the half-inhibitory concentration (IC50) on JAK3 and on JAK2 were 40 nM and 7.14 nM, respectively.

Turning to `Cc1cc(Nc2nc(N3CCN(C(=O)Cc4ccc(C(F)(F)F)cc4C(F)(F)F)CC3)nn3cccc23)n[nH]1` [Example 134, 2-(4-((2,4-bis(trifluoromethyl)phenyl)acetyl)-1-piperazinyl)-N-(5-methyl-1H-pyrazol-3-yl)pyrrolo[2,1-f] [1,2,4]triazin-4-amine], the IC50 on JAK3 is 8.41 nM; at JAK2, 0.887 nM.

`Cc1cc(Nc2nc(N3CCN(C(=O)c4ccccc4S(C)(=O)=O)CC3)nn3cccc23)n[nH]1` [Example 193, N-(5-methyl-1H-pyrazol-3-yl)-2-(4-(2-(methylsulfonyl)benzoyl)-1-piperazinyl)pyrrolo[2,1-f][1,2,4]triazin-4-amine]: the figures for the IC50 on JAK3 and on JAK2 were 3050 nM and 130 nM, respectively.

Take `CCC(CO)(CO)C(=O)N1CCN(c2nc(Nc3cc(C)[nH]n3)c3cccn3n2)CC1` [Example 152, 2-ethyl-2-((4-(4-((5-methyl-1H-pyrazol-3-yl)amino)pyrrolo[2,1-f] [1,2,4]triazin-2-yl)-1-piperazinyl)carbonyl)-1,3-propanediol]: the IC50 on JAK3 was 2360 nM; on JAK2, 300 nM.

For `Cc1cc(Nc2nc(N3CCN(C(=O)C(C)(C)C)CC3)nn3cccc23)n[nH]1` [Example 168, 2-(4-(2,2-dimethylpropanoyl)-1-piperazinyl)-N-(5-methyl-1H-pyrazol-3-yl)pyrrolo[2,1-f][1,2,4]triazin-4-amine], the IC50 was 210 nM on JAK3 and 7.07 nM on JAK2.

Consider `CCC(O)(CC)C(=O)N1CCN(c2nc(Nc3cc(C)[nH]n3)c3cccn3n2)CC1` [Example 164, 3-((4-(4-((5-methyl-1H-pyrazol-3-yl)amino)pyrrolo[2,1-f] [1,2,4]triazin-2-yl)-1-piperazinyl)carbonyl)-3-pentanol], for which the values for the IC50 on JAK3 and at JAK2 were 1490 nM and 240 nM, respectively.

With `Cc1cc(Nc2nc(N3CCN(C(=O)C(C)(C)N(C)C(=O)OC(C)(C)C)CC3)nn3cccc23)n[nH]1` [Example 158, tert-butyl(1,1-dimethyl-2-(4-(4-((5-methyl-1H-pyrazol-3-yl)amino)pyrrolo[2,1-f] [1,2,4]triazin-2-yl)-1-piperazinyl)-2-oxoethyl)methylcarbamate], the IC50 on JAK3 is 1740 nM; on JAK2 it was 300 nM.

In the case of `CO[C@@H](C(=O)N1CCN(c2nc(Nc3cc(C)[nH]n3)c3cccn3n2)CC1)c1ccccc1` [Example 110, 2-(4-((2R)-2-methoxy-2-phenylacetyl)-1-piperazinyl)-N-(5-methyl-1H-pyrazol-3-yl)pyrrolo[2,1-f][1,2,4]triazin-4-amine], the IC50 amounted to 20 nM at JAK3 and 1 nM on JAK2.

In the case of `COc1cccc(CC(=O)N2CCN(c3nc(Nc4cc(C)[nH]n4)c4cccn4n3)CC2)c1` [Example 49, 2-(4-((3-methoxyphenyl)acetyl)-1-piperazinyl)-N-(5-methyl-1H-pyrazol-3-yl)pyrrolo[2,1-f][1,2,4]triazin-4-amine], the half-maximal inhibitory concentration (IC50) on JAK3 is 170 nM; at JAK2, 7.9 nM.

`Cc1cc(Nc2nc(N3CCN(C(=O)Cc4cccc(C(F)(F)F)c4)CC3)nn3cccc23)n[nH]1` [Example 48, N-(5-methyl-1H-pyrazol-3-yl)-2-(4-((3-(trifluoromethyl)phenyl)acetyl)-1-piperazinyl)pyrrolo[2,1-f][1,2,4]triazin-4-amine]: the IC50 worked out at 20 nM on JAK3 and 0.903 nM at JAK2.

For the molecule `Cc1cc(Nc2nc(N3CCN(C(=O)c4ccc(F)cc4)CC3)nn3cccc23)n[nH]1` [Example 24, 2-(4-(4-fluorobenzoyl)-1-piperazinyl)-N-(5-methyl-1H-pyrazol-3-yl)pyrrolo[2,1-f][1,2,4]triazin-4-amine], the values for the IC50 on JAK3 and on JAK2 were 5.98 nM and 1.14 nM, respectively.

Take `Cc1cc(Nc2nc(N3CCN(C(=O)C4(c5ccc(F)cc5)CCCCC4)CC3)nn3cccc23)n[nH]1` [Example 126, 2-(4-((1-(4-fluorophenyl)cyclohexyl)carbonyl)-1-piperazinyl)-N-(5-methyl-1H-pyrazol-3-yl)pyrrolo[2,1-f] [1,2,4]triazin-4-amine]: the IC50 on JAK3 came to 1410 nM; at JAK2, 150 nM.

What is called IC50 is the concentration that inhibits the measured activity by half.
